Data taken from ChEMBL document CHEMBL6103571, “Design, synthesis, and evaluation of carboxylic acid-substituted celecoxib isosteres as potential anti-inflammatory agents” (Eur J Med Chem, 2025).
The source made the active and inactive calls. No cut-off for these calls is given here.

What was measured:
[1] = system: RAW264.7; assay: Anti-inflammatory activity against LPS-induced mouse RAW264.7 cells assessed as inhibition of NO production at 20 uM preincubated for 1 hrs followed by LPS addition and measured after 24 hrs by Griess reagent-based microplate reader analysis relative to control; assay type: functional; settings: time 25 hrs
[2] = Cytotoxicity against mouse RAW264.7 cells incubated for 24 hrs by MTT assay; assay type: toxicity, cell-based
[3] = Toxicity in Sprague-Dawley rat assessed as average number of ulcers at 50 mg/kg, po administrated for 3 days and measured after 2 hrs; assay type: organism-based; settings: in vivo, 74 h
[4] = Toxicity in Sprague-Dawley rat assessed as ulcer score at 50 mg/kg, po administrated for 3 days and measured after 2 hrs; assay type: organism-based; settings: in vivo, 74 h
[5] = Toxicity in Sprague-Dawley rat assessed as ulcer index at 50 mg/kg, po administrated for 3 days and measured after 2 hrs; assay type: organism-based; settings: in vivo, 74 h
[6] = system: Mus musculus; assay: Anti-inflammatory activity in TPA-induced male Kunming mouse model of ear edema assessed as reduction in ear thickness at 1.0 mg, TOP pre-administered via ear for 30 mins followed by TPA addition and measured after 6 hrs; assay type: functional, organism-based; settings: time 6.5 hrs
[7] = Toxicity in Sprague-Dawley rat assessed as ulcer index at 100 mg/kg, po administrated for 3 days and measured after 2 hrs post last dose; assay type: organism-based; settings: in vivo, 74 h
[8] = system: Mus musculus; assay: Anti-inflammatory activity in TPA-induced male Kunming mouse model of ear edema assessed as reduction in ear weight at 1.0 mg, TOP pre-administered via ear for 30 mins followed by TPA addition and measured after 6 hrs; assay type: functional, organism-based; settings: time 6.5 hrs
[9] = Toxicity in male Sprague-Dawley rat assessed as average number of ulcers at 100 mg/kg, po administrated for 3 days and measured after 2 hrs post last dose; assay type: organism-based; settings: in vivo, 74 h
[10] = Toxicity in male Sprague-Dawley rat assessed as ulcer score at 100 mg/kg, po administrated for 3 days and measured after 2 hrs post last dose; assay type: organism-based; settings: in vivo, 74 h
[11] = system: Mus musculus; assay: Anti-inflammatory activity in TPA-induced male Kunming mouse model of ear edema assessed as reduction in ear erythema at 1.0 mg, TOP pre-administered via ear for 30 mins followed by TPA addition and measured after 6 hrs; assay type: functional, organism-based; settings: time 6.5 hrs
[12] = system: Mus musculus; assay: Anti-inflammatory activity in TPA-induced male Kunming mouse model of ear edema assessed as reduction in ear weight at 0.5 to 1.0 mg, TOP pre-administered via ear for 30 mins followed by TPA addition and measured after 6 hrs; assay type: functional, organism-based; settings: dose 0.5-1 mg, time 6.5 hrs
[13] = system: RAW264.7; assay: Anti-inflammatory activity in LPS-induced mouse RAW264.7 cells assessed as downregulation of COX-2 expression at 12.5 to 50 uM preincubated for 1 hrs followed by LPS addition for 24 hrs by Western blotting analysis; assay type: functional, cell-based; settings: dose 12.5-50 µM, time 25.0 hrs
[14] = system: Mus musculus; assay: Anti-inflammatory activity against TPA-induced Kunming mouse ear edema model assessed as inhibition of PGE2 production in ear homogenate pre-administered topically via ear for 30 mins followed by TPA addition and measured after 6 hrs by ELISA; assay type: functional, organism-based; settings: dose 0.5-1 mg, route top, time 6.5 hrs
[15] = molecular target: T1, Prostaglandin G/H synthase 1 (Ovis aries, UniProt P05979); assay: Inhibition of ovine COX-1 using arachidonic acid as substrate preincubated for 10 mins followed by substrate addition and measured after 2 mins by ELISA
T1 sequence (P05979 whole entry): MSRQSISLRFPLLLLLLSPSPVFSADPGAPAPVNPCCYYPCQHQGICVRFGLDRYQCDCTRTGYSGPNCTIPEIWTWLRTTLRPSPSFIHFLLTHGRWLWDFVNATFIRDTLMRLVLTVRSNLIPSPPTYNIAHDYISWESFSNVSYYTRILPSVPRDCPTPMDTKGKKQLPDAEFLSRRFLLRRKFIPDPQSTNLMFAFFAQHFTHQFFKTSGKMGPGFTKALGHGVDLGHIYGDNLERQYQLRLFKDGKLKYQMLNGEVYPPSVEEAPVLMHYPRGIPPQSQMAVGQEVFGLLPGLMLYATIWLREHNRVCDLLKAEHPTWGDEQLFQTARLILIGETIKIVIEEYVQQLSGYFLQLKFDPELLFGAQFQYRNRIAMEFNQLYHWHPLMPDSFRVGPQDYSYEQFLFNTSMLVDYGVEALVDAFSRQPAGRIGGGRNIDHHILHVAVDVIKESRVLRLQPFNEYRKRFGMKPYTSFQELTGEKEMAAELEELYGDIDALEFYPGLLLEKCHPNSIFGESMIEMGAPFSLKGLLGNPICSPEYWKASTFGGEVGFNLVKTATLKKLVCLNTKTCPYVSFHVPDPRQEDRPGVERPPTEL

[16] = Selectivity index, ratio of IC50 for ovine COX-1 to IC50 for human COX-2
[17] = molecular target: T2, Prostaglandin G/H synthase 2 (Homo sapiens, UniProt P35354); assay: Inhibition of recombinant human COX-2 using arachidonic acid as substrate preincubated for 10 mins followed by substrate addition and measured after 2 mins by ELISA
T2 sequence (P35354 whole entry): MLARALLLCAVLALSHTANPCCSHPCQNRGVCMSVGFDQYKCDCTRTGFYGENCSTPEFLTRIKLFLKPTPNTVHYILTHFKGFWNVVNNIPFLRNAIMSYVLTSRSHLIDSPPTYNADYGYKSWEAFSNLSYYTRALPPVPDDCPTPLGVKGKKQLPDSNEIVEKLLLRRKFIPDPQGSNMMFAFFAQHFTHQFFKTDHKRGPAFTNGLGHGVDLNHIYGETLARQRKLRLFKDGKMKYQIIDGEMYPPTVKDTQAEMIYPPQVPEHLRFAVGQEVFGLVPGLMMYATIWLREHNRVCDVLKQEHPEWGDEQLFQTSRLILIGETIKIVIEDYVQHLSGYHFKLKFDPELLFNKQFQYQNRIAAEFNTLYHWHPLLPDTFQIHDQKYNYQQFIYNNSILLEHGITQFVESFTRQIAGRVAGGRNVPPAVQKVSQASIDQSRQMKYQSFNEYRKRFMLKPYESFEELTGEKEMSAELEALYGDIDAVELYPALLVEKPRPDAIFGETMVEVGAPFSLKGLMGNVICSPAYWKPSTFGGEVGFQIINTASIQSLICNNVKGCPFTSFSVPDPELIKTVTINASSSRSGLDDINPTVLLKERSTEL

[18] = system: Mus musculus; assay: Anti-inflammatory activity against TPA-induced Kunming mouse ear edema model assessed as downregulation of COX-2 level in ear homogenate pre-administered topically via ear for 30 mins followed by TPA addition and measured after 6 hrs by Western blot analysis; assay type: functional, organism-based; settings: dose 0.5-1 mg, route top, time 6.5 hrs
[19] = system: RAW264.7; assay: Anti-inflammatory activity in LPS-induced mouse RAW264.7 cells assessed as reduction in PGE2 production preincubated for 1 hrs followed by LPS addition for 24 hrs by ELISA; assay type: functional, cell-based; settings: dose 12.5-50 µM, time 25.0 hrs
[20] = system: Mus musculus; assay: Anti-inflammatory activity in TPA-induced male Kunming mouse model of ear edema assessed as reduction in ear thickness at 0.5 to 1.0 mg, TOP pre-administered via ear for 30 mins followed by TPA addition and measured after 6 hrs; assay type: functional, organism-based; settings: dose 0.5-1 mg, time 6.5 hrs
[21] = system: Mus musculus; assay: Anti-inflammatory activity in TPA-induced male Kunming mouse model of ear edema assessed as reduction in ear erythema pre-administered topically via ear for 30 mins followed by TPA addition and measured after 6 hrs; assay type: functional, organism-based; settings: dose 0.5-1 mg, route top, time 6.5 hrs

SMILES | inhibition at 20 µM [1] [%] | IC50 at 24 h [2] [µM] | other results
NS(=O)(=O)c1ccc(-c2nnc(SCC(=O)O)n2-c2ccc(C(F)(F)F)cc2)cc1 | 22.6 | 62.2 | –
NS(=O)(=O)c1ccc(-c2nnc(SCC(=O)O)n2-c2ccc(Br)cc2)cc1 | 21 | > 100 | –
COc1cccc(-n2c(SCC(=O)O)nnc2-c2ccc(S(N)(=O)=O)cc2)c1 | 15.6 | > 100 | –
NS(=O)(=O)c1ccc(-c2nnc(SCC(=O)O)n2-c2cccc(I)c2)cc1 | 22.5 | > 100 | –
NS(=O)(=O)c1ccc(-c2nnc(SCC(=O)O)n2-c2ccccc2[N+](=O)[O-])cc1 | 13.8 | > 100 | –
Cc1ccccc1-n1c(SCC(=O)O)nnc1-c1ccc(S(N)(=O)=O)cc1 | 18.8 | > 100 | –
NS(=O)(=O)c1ccc(-c2nnc(SCC(=O)O)n2-c2ccccc2Cl)cc1 | 20.9 | > 100 | –
NS(=O)(=O)c1ccc(-c2nnc(SCC(=O)O)n2-c2cccc(C(F)(F)F)c2)cc1 | 21.1 | > 100 | –
NS(=O)(=O)c1ccc(-c2nnc(SCC(=O)O)n2-c2cccc(Br)c2)cc1 | 14.1 | > 100 | –
NS(=O)(=O)c1ccc(-c2nnc(SCC(=O)O)n2-c2cccc(F)c2)cc1 | 15.1 | > 100 | –
NS(=O)(=O)c1ccc(-c2nnc(SCC(=O)O)n2-c2ccccc2F)cc1 | 13.6 | > 100 | –
NS(=O)(=O)c1ccc(-c2nnc(SCC(=O)O)n2-c2cccc([N+](=O)[O-])c2)cc1 | 13.2 | > 100 | –
COc1ccc(-n2c(SCC(=O)O)nnc2-c2ccc(S(N)(=O)=O)cc2)cc1 | 18.7 | > 100 | –
COc1ccc2c(c1)c(CC(=O)O)c(C)n2C(=O)c1ccc(Cl)cc1 [INDOMETHACIN] | – | – | Activity [3]: 3.18; Activity [4]: 15.6; UI [5]: 28.78
Cc1ccc(-c2cc(C(F)(F)F)nn2-c2ccc(S(N)(=O)=O)cc2)cc1 [CELECOXIB] | 38.1 | – | Activity [6]: Active; UI [7]: 6.3; Activity [8]: Active; Activity [9]: 0.8; Activity [10]: 1.5; Activity [11]: Active
NS(=O)(=O)c1ccc(-c2nnc(SCC(=O)O)n2-c2ccc(Cl)cc2)cc1 | 22.4 | > 100 | –
Cc1ccc(-n2c(SCC(=O)O)nnc2-c2ccc(S(N)(=O)=O)cc2)cc1 | 22.3 | 74.6 | –
NS(=O)(=O)c1ccc(-c2nnc(SCC(=O)O)n2-c2ccc(I)cc2)cc1 | 30.8 | > 100 | Activity [12]: Active; UI [7]: 5.2; Activity [13]: Active; Activity [14]: Dose-dependent-effect; IC50 [15]: 16 µM; Activity [9]: 0.6; Ratio IC50 [16]: 296; Activity [10]: 0.6; IC50 [17]: 0.054 µM; Activity [18]: Dose-dependent-effect; Activity [19]: Dose-dependent-effect; Activity [20]: Active; Activity [21]: Dose-dependent-effect
NS(=O)(=O)c1ccc(-c2nnc(SCC(=O)O)n2-c2ccc(F)cc2)cc1 | 15.4 | > 100 | –
NS(=O)(=O)c1ccc(-c2nnc(SCC(=O)O)n2-c2ccccc2I)cc1 | 17.9 | > 100 | –
COc1ccccc1-n1c(SCC(=O)O)nnc1-c1ccc(S(N)(=O)=O)cc1 | 12.9 | > 100 | –
NS(=O)(=O)c1ccc(-c2nnc(SCC(=O)O)n2-c2ccccc2Br)cc1 | 14 | > 100 | –
NS(=O)(=O)c1ccc(-c2nnc(SCC(=O)O)n2-c2cccc(Cl)c2)cc1 | 19.1 | > 100 | –
NS(=O)(=O)c1ccc(-c2nnc(SCC(=O)O)n2-c2ccccc2C(F)(F)F)cc1 | 20.7 | > 100 | –
Cc1cccc(-n2c(SCC(=O)O)nnc2-c2ccc(S(N)(=O)=O)cc2)c1 | 17.7 | 76.6 | –
NS(=O)(=O)c1ccc(-c2nnc(SCC(=O)O)n2-c2ccc([N+](=O)[O-])cc2)cc1 | 23.9 | > 100 | –
